Experimental data from ChEMBL document CHEMBL3817805, “Benzamide capped peptidomimetics as non-ATP competitive inhibitors of CDK2 using the REPLACE strategy” (Bioorg Med Chem Lett, 2016).
Residues, ends and D or L forms follow the SMILES beside them.

Experiments:
CDK2/Cyclin A2 = CDK2/Cyclin A2 (Homo sapiens, UniProt P24941); experiment: Inhibition of recombinant human CDK2/cyclin A2 using fluoresceinyl-Ahx-Pro-Val-Lys-Arg-Arg-Leu-Phe-Gly as substrate incubated for 45 mins by fluorescence polarization assay; assay type: protein-complex assay
[1] = target: Cyclin-dependent kinase 4/cyclin D1 (Homo sapiens, UniProt P24385); experiment: Inhibition of recombinant human CDK4/cyclin D1 using fluoresceinyl-AhxPro-Val-Lys-Arg-Arg-Leu-(3ClPhe)-Gly as substrate incubated for 45 mins by fluorescence polarization assay; assay type: protein-complex assay
Chain of Cyclin-dependent kinase 4/cyclin D1 (P11802 whole entry): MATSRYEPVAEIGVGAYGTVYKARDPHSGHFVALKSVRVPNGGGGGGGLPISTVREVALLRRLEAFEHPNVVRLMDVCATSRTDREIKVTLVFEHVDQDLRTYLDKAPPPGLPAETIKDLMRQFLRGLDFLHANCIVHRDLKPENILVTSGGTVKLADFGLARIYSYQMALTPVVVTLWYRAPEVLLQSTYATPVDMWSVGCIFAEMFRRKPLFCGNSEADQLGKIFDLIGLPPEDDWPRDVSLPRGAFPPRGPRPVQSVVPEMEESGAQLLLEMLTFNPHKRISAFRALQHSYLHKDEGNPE
Chain of Cyclin-dependent kinase 4/cyclin D1 (P24385 whole entry): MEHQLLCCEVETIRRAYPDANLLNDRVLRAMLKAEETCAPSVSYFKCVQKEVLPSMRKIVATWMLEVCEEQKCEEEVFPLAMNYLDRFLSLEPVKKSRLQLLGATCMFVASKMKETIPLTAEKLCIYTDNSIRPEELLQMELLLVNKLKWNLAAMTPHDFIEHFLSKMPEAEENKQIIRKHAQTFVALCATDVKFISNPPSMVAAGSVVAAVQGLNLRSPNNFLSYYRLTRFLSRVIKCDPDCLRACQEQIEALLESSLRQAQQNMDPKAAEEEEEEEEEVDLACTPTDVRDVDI

[2] = Antiproliferative activity against human DU145 cells incubated for 72 hrs by MTT assay; assay type: functional, cell-based; conditions: DU-145, 72 h
U2OS = experiment: Antiproliferative activity against human U2OS cells incubated for 72 hrs by MTT assay; assay type: functional, cell-based

SMILES | IC50 (CDK2/Cyclin A2) [µM] | IC50 [1] [µM] | IC50 [2] [µM] | IC50 (U2OS) [µM]
CC(C)CC(CC(=O)NC(Cc1ccsc1)C(N)=O)NC(=O)[C@H](CCCNC(=N)N)NC(=O)c1cc(OC2CCNCC2)cc(OC2CCNCC2)c1 (stereo partly drawn) | > 30 | – | – | –
CC(C)CC(CC(=O)N(C)[C@@H](Cc1ccccc1)C(N)=O)NC(=O)[C@H](CCCNC(=N)N)NC(=O)c1ccc(CN2CCN(C3CCN(C)CC3)CC2)cc1 (stereo partly drawn) | 8.32 | 48.9 | – | –
CCOc1cc(C(=O)N[C@@H](CCCNC(=N)N)C(=O)NC(CC(=O)N(C)[C@@H](Cc2ccccc2)C(N)=O)CC(C)C)ccc1CN1CCNCC1 (stereo partly drawn) | 22.6 | 18.6 | – | –
CC(C)C[C@H](NC(=O)[C@H](CCCNC(=N)N)NC(=O)c1ccc(CNC(=N)N)cc1)C(=O)N[C@@H](CC(N)=O)C(=O)N1CCC[C@@H]1C(=O)N[C@H](Cc1ccccc1)C(=O)N[C@@H](Cc1ccccc1)C(=O)O | 0.69 | 15.3 | – | –
CC(C)CC(CC(=O)N(C)[C@@H](Cc1ccccc1)C(N)=O)NC(=O)[C@H](CCCNC(=N)N)NC(=O)c1ccc(CN2CCNC[C@@H]2C)cc1 (stereo partly drawn) | 13.4 | > 100 | 204 | 229
CC(C)CC(CC(=O)N(C)[C@@H](Cc1ccccc1)C(N)=O)NC(=O)[C@H](CCCNC(=N)N)NC(=O)c1ccc(CN2CCNCC2)c(O)c1 (stereo partly drawn) | 7.42 | 11.8 | – | –
CC(C)C[C@H](NC(=O)[C@H](CCCNC(=N)N)NC(=O)c1ccc(CN2CCNCC2)cc1)C(=O)N[C@@H](CC(N)=O)C(=O)N1CCC[C@@H]1C(=O)N[C@H](Cc1ccccc1)C(=O)N[C@@H](Cc1ccccc1)C(=O)O | 5.3 | 12.9 | – | –
CC(C)CC(CC(=O)N(C)[C@@H](Cc1ccccc1)C(N)=O)NC(=O)[C@H](CCCNC(=N)N)NC(=O)c1ccc(CN2CCNC[C@H]2C)cc1 (stereo partly drawn) | 22.3 | 45.4 | – | –
CC(C)CC(CC(=O)NC(Cc1ccsc1)C(N)=O)NC(=O)[C@H](CCCNC(=N)N)NC(=O)c1ccc(C=C2CCNCC2)cc1 (stereo partly drawn) | 9.16 | > 100 | – | –
CC(C)CC(CC(=O)N(C)[C@@H](Cc1ccccc1)C(N)=O)NC(=O)[C@H](CCCNC(=N)N)NC(=O)c1ccc(OC2CCNCC2)cc1 (stereo partly drawn) | 40.4 | 31 | – | –
CC(C)CC(CC(=O)NC(Cc1ccsc1)C(N)=O)NC(=O)[C@H](CCCNC(=N)N)NC(=O)c1ccc(CN2CCNC[C@@H]2C)c(O)c1 (stereo partly drawn) | 13.1 | – | – | –
CCOc1cc(C(=O)N[C@@H](CCCNC(=N)N)C(=O)N[C@@H](CC(C)C)C(=O)N[C@H](C(=O)N[C@@H](Cc2ccccc2)C(=O)O)[C@@H](C)CC)ccc1CN1CCNCC1 (HELM PEPTIDE1{[CCOc1cc(C(=O)[*:2])ccc1CN1CCNCC1].R.L.I.F}$$$$V2.0) | 5.95 | 5.14 | – | –
CC[C@H](C)[C@H](NC(=O)[C@H](CC(C)C)NC(=O)[C@H](CCCNC(=N)N)NC(=O)c1ccc(CN2CCN(C)CC2)cc1)C(=O)N[C@@H](Cc1ccccc1)C(=O)O (HELM PEPTIDE1{[CN1CCN(Cc2ccc(C(=O)[*:2])cc2)CC1].R.L.I.F}$$$$V2.0) | 7.92 | 11.3 | – | –
CC[C@H](C)[C@H](NC(=O)[C@H](CC(C)C)NC(=O)[C@H](CCCNC(=N)N)NC(=O)c1ccc(CN2CCNCC2)c(O)c1)C(=O)N[C@@H](Cc1ccccc1)C(=O)O (HELM PEPTIDE1{[O=C(c1ccc(CN2CCNCC2)c(O)c1)[*:2]].R.L.I.F}$$$$V2.0) | 4.56 | 10.4 | – | –
CC[C@H](C)[C@H](NC(=O)[C@H](CC(C)C)NC(=O)[C@H](C)NC(=O)c1ccc(CN2CCNCC2)cc1)C(=O)N[C@@H](Cc1ccccc1)C(=O)O (HELM PEPTIDE1{[O=C(c1ccc(CN2CCNCC2)cc1)[*:2]].A.L.I.F}$$$$V2.0) | > 100 | 51.5 | – | –
CC[C@H](C)[C@H](NC(=O)[C@H](CC(C)C)NC(=O)[C@H](CCCNC(=N)N)NC(=O)c1ccc(CN2CCNCC2)cc1)C(=O)N[C@@H](Cc1ccccc1)C(=O)O (HELM PEPTIDE1{[O=C(c1ccc(CN2CCNCC2)cc1)[*:2]].R.L.I.F}$$$$V2.0) | 12.9 | 11.7 | – | –
CC[C@H](C)[C@H](NC(=O)[C@H](CC(C)C)NC(=O)[C@H](CCCNC(=N)N)NC(=O)c1ccc(N2CCNCC2)cc1)C(=O)N[C@@H](Cc1ccccc1)C(=O)O (HELM PEPTIDE1{[O=C(c1ccc(N2CCNCC2)cc1)[*:2]].R.L.I.F}$$$$V2.0) | – | 23.8 | – | –

More lines, main results first:

IC50 (CDK2/Cyclin A2) [µM] | IC50 [1] [µM] | SMILES | IC50 [2] [µM] | IC50 (U2OS) [µM]
31.3 | 8.52 | CCCN1CCN(Cc2ccc(C(=O)N[C@@H](CCCNC(=N)N)C(=O)NC(CC(=O)NC(Cc3ccsc3)C(N)=O)CC(C)C)cc2)CC1 (stereo partly drawn) | – | –
> 50 | – | CC(C)CC(CC(=O)NC(Cc1ccsc1)C(N)=O)NC(=O)[C@H](CCCNC(=N)N)NC(=O)c1ccc(CN(C)C2CCNCC2)cc1 (stereo partly drawn) | – | –
17.4 | 74.3 | CCN1CCN(Cc2ccc(C(=O)N[C@@H](CCCNC(=N)N)C(=O)NC(CC(=O)NC(Cc3ccsc3)C(N)=O)CC(C)C)cc2)CC1 (stereo partly drawn) | – | –
26 | 69.9 | CC(C)CC(CC(=O)NC(Cc1ccsc1)C(N)=O)NC(=O)[C@H](CCCNC(=N)N)NC(=O)c1ccc(C=C2CCN(C)CC2)cc1 (stereo partly drawn) | – | –
6.78 | 45.6 | CCN1CCN(Cc2ccc(C(=O)N[C@@H](CCCNC(=N)N)C(=O)NC(CC(=O)NC(Cc3ccsc3)C(N)=O)CC(C)C)cc2)[C@@H](C)C1 (stereo partly drawn) | – | –
> 30 | – | CC(C)CC(CC(=O)NC(Cc1ccsc1)C(N)=O)NC(=O)[C@H](CCCNC(=N)N)NC(=O)c1ccc(CC2CCNCC2)cc1 (stereo partly drawn) | – | –
31 | – | CC(C)CC(CC(=O)NC(Cc1ccsc1)C(N)=O)NC(=O)[C@H](CCCNC(=N)N)NC(=O)c1ccc(CN(C)C2CCCNC2)cc1 (stereo partly drawn) | – | 153
22.4 | 9.36 | CCCN1CCN(Cc2ccc(C(=O)N[C@@H](CCCNC(=N)N)C(=O)NC(CC(=O)NC(Cc3ccsc3)C(N)=O)CC(C)C)cc2)[C@@H](C)C1 (stereo partly drawn) | – | –
> 100 | – | CC(C)CC(CC(=O)NC(Cc1ccsc1)C(N)=O)NC(=O)[C@H](CCCNC(=N)N)NC(=O)c1ccc(CNC2CCNCC2)cc1 (stereo partly drawn) | – | –
